This note sets out measurements from patent US20140288182A1, “USE OF CARBAMIDE PEROXIDE INJECTION IN PREPARATION OF VIRUS INACTIVATION MEDICAMENTS FOR TREATING DISEASES” (Wuxi Zhaozhen Radiation Technology Co., Ltd., priority 2013, published 2014).

This assay concerns thoracic aorta blood vessel plaque. Briefly: New-Zealand rabbit model of blood vessel plaque (CTA angiography and MR). The format is in vivo. On the procedure: The New-Zealand rabbit model of blood vessel plaque is a common animal experimental model. […] The blood vessel plaque was taken as the target region and positioned, and a radiotherapy plan was made. 1.5 h after intraperitoneal injection of 5-ALA (80 mg/kg body weight), the substrate was intravenously dripped, and the irradiation to the blood vessel plaque was performed once with 5 Gy. The New-Zealand rabbit was continually fed for 1 week.

SMILES strings stand for the structures.

In the case of `NCC(=O)CCC(=O)O` [5-ALA], the “regression of thoracic aorta blood vessel plaque (CTA angiography and MR detection)” value (5-ALA 80 mg/kg intraperitoneal 1.5 h before, substrate intravenously dripped, plaque irradiated once with 5 Gy, examined on the seventh day after treatment) is recorded as “completely disappeared”. In addition, the “plaque in the blood vessel of a rabbit by CT examination (FIG. 3)” value (photosensitizer given orally, irradiated with high energy X-ray, CT examination 5 days later) is “eliminated”.
